Measurements taken from US8778643B2, “Methods for increasing lipid levels and producing triacylglycerols in algae” (priority 2012, dated 2014).

What was measured:
[1] = tested on: Phaeodactylum tricornutum; assay: Microplate assay: growth (absorbance 680 nm) and intracellular lipids (Nile Red fluorescence); assay type: cell-based
Method: (§1) Stock cultures were aerated by stirring with bubbling air (homemade manifold with Petco air pump, 2-4% CO2) or by orbital shaking (Thermo Scientific MAXQ 2000) at a constant speed of 150 rpm at 22±3° C. with a 16:8 hour light/dark cycle. Stocks were kept at stationary phase for use. Algae were prepared as dictated by culture center.
(§2) Compounds were selected based on reported biological activity in non-microalgae organisms. To ensure that compounds retained their quality, they were stored under advised conditions after purchasing from the manufacturer. Solutions of all assay compounds were prepared as 10 mM stock solutions by dissolving in DMSO in 2-dram amber vials and then stored in darkness −20° C. 96-well PCR plates were used to create a stock plate layout that was then transferred to the algae microplates. A plate map was used to distribute each compound to a well based on molecule name, collection number, and CAS number. For 20 μM and 200 nM assay plates, 10 mM compound stock in DMSO was diluted into plate maps of 5 mM and 50 μM assay stocks, respectively.
(§3) All materials for assay experiments were autoclaved before each use to maintain axenic algae cultures. Algae species were checked for homogeneity using a TS-100 light microscope (Nikon, Japan). […] Diluted stock solutions were made immediately prior to use for consistency and optimal plate growth. Cell density was measured on a Thermo Scientific Genesys 10S Vis Spectrophotometer (ThermoFisher, San Jose), using a 1 mL cuvette at 680 nm.
(§4) Plates were originally run in triplicate, before replicates were increased to quadruplicate, along with a separate control plate to compare growth. Due to extensive evaporation in exterior wells over time, our unique algae plate layout was designed to use the 60 interior wells out of 96 wells for the experiment. The 36 outer wells were filled with Millipore water and media to prevent evaporation and edge effects in the inner algae wells, as well as serve as blanks. The 60 wells with algae contained a total volume of 251 μL (100 μL of media+DMSO compound stock +150 μL dilute algae stock). For 20 μM and 200 nM assay plates, 10 mM compound stock in DMSO is diluted into plate maps of 5 mM and 50 μM assay stocks, respectively. […] Plates were parafilmed during growth to limit the amount of evaporation that can occur. Plates were numbered, and numerically ordered to ensure they got the same shaker space.
(§5) The shakers are kept at a constant shaking of 150 rpm. Ambient temperature is 22±3° C.

Nannochloris sp. [2] = assay: as above; assay type: cell-based; details: for Nile Red Fluorescence % Increase: Nannochloris sp., compounds tested at 20 μM, initial screening, p<0.05
Method: as §1, §2, §3, §4, §5

[3] = tested on: Phaeodactylum tricornutum; assay: 500 mL batch culture: growth, dry weight and lipid extract (gravimetric); assay type: cell-based; details: P. tricornutum, 500 mL culture, 4 μM in water, two replicates
Method: (§6) Batch cultures were grown in 500 mL Pyrex media bottles with stirring and air bubbling (homemade manifold with Petco air pump, 2-4% CO2). Incoming air was sterile filtered by Polyvent 4 disposable filters (Whatman, Kent, UK). […] To minimize bacterial contamination, all equipment and materials were autoclaved and media was added to flask in a Purifier Vertical Clean bench (Labconco, Kansas City, Mo.). […] The amount of DMSO is standardized for all experiments to 0.4%.
(§7) For all compound cultures, the 2 mL DMSO stock solution was added to media (without algae) first and mixed well. Control cultures were grown without DMSO. DMSO controls consisted of 0.04-1.0% DMSO. After the addition of algae and media, the container was plugged with a bug stopper vented closure cap and mixed thoroughly. Absorbance is measured immediately for Day 0 analysis. Afterward, absorbance was measured every 1-2 days with a cuvette (1 mL volume) on the Thermo Scientific Genesys 10S V is Spectrophotometer (ThermoFisher, San Jose) at 680 nm.
(§8) Batch cultures were also repeated in triplicate and compared to a control culture grown at the same time. Algae were harvested and lipids were extracted for gravimetric analysis.
(§9) The nonpolar algal extracts were harvested from 500 mL cultures when indicated on growth curves, a minimum of 3 days into stationary phase.
(§10) Cell density was monitored by measuring absorbance at 680 nm every 1-2 days.
(§11) 500-mL cultures were harvested 6 days into stationary phase based on absorbance values. Cells were concentrated by centrifugation and lyophilization to remove water. Nonpolar lipids were extracted by sonication and solvent (chloroform-methanol and PBS buffer). […] Changes in lipid levels for batch cultures were determined by crude lipid extract mass.

Nannochloropsis salina [4] = assay: as above; assay type: cell-based; details: for effect on growth and lipid levels: 500 mL batch culture; for Lipid productivity / Lipid content / Change in Lipids / Specific Growth Rate: N. salina; for Lipid content: dried lipid extract per dry biomass; for Change in Lipids: gravimetric, relative to averaged control without DMSO; for Specific Growth Rate: mid-exponential growth phase
Method: as §6, §7, §8
Cultures were harvested at day 6 in stationary phase. Cultures were pelleted, lyophilized, and extracted side-by-side. The experiment was performed in triplicate.
The nonpolar algal extracts were harvested from 500 mL cultures when indicated on growth curves, a minimum of 3 days into stationary phase. […] Cells were crushed and nonpolar lipids were extracted by sonication (Fisher Scientific Model 120 Sonic Dismembrator, ThermoFisher, San Jose) for 1 minute in chloroform, followed by chloroform-methanol extractions, washed with PBS butter, and dried under vacuum.^55-60 The crude non-polar algae extracts were then analyzed by ^1H Nuclear Magnetic Resonance (^1H NMR) for verification of TAG presence and examination of the purity of the extract (determination of level of chlorophyll).
as §10, §11

Nannochloropsis oculata [5] = assay: as above; assay type: cell-based; details: for effect on growth and lipid levels: 500 mL batch culture; for Lipid productivity / Lipid content / Change in Lipids / Specific Growth Rate: 500 mL culture; for Lipid content: dried lipid extract per dry biomass; for Change in Lipids: gravimetric, relative to averaged control without DMSO; for Specific Growth Rate: mid-exponential growth phase
Method: as §6, §7, §8, §9, §10, §11

Nannochloris sp. [6] = assay: as above; assay type: cell-based; details: for effect on growth and lipid levels: 500 mL batch culture; for Lipid productivity / Change in Lipids / Specific Growth Rate: Nannochloris sp., 500 mL culture; for Change in Lipids: gravimetric, relative to averaged control without DMSO; for Specific Growth Rate: mid-exponential growth phase
Method: as §6, §7, §8, §9, §10, §11

Nannochloropsis oculata [7] = assay: Lipid composition of batch culture extracts (fatty acid saturation / PUFA by 1H NMR, MALDI-TOF, GC/MS); assay type: cell-based; details: for SFAs (% of total lipids) / n3 PUFAs (% of UFAs) / All other PUFAs and MUFAs (% of UFAs) / UFAs (% of total lipids): 1H NMR; for SFAs (% of total lipids): Normal 24; for n3 PUFAs (% of UFAs): Normal 37; for All other PUFAs and MUFAs (% of UFAs): Normal 63; for UFAs (% of total lipids): Normal 76
microalgae [8] = assay: 500 mL batch culture (growth, gravimetric lipids), algae strain not stated; assay type: cell-based; details: for effect on growth and lipid levels: 500 mL batch cultures (Table 30)
Nannochloropsis salina [9] = tested on: Nannochloropsis salina
Nannochloropsis oculata [10] = tested on: Nannochloropsis oculata
Method: as §1, §2, §3, §4, §5

FABI = FABI (FAB1); cited from earlier work
microalgae [11] = assay: Microplate assay (growth, Nile Red lipids), algae strain not stated; details: microplate screening; strain not given; listed as (−)-epigallocatechin gallate
PKC = details: PKC; cited from earlier work
[12] = tested on: Phaeodactylum tricornutum
Method: The nonpolar algal extracts were harvested from 500 mL cultures when indicated on growth curves, a minimum of 3 days into stationary phase. […] Cells were crushed and nonpolar lipids were extracted by sonication (Fisher Scientific Model 120 Sonic Dismembrator, ThermoFisher, San Jose) for 1 minute in chloroform, followed by chloroform-methanol extractions, washed with PBS butter, and dried under vacuum.^55-60 The crude non-polar algae extracts were then analyzed by ^1H Nuclear Magnetic Resonance (^1H NMR) for verification of TAG presence and examination of the purity of the extract (determination of level of chlorophyll). […]
After the initial weight was recorded, the nonpolar extract set aside for transesterification was dissolved in 3.0 mL of 0.6 M sulfuric acid in methanol and stirred vigorously at 60° C. for 45 minutes. […]
We developed a quick and robust method to screen if the screened compound effect fatty acid saturation levels using ^1H NMR spectroscopy. The amount of saturated fatty acids (SFA), monounsaturated fatty acids (MUFAs), and polyunsaturated fatty acids (PUFAs) was determined using peak area ratios.
Calculated based on ^1H NMR integral ratios for the proton signals for the methyl group of PUFA components vs. the methyl groups of monounsaturated and saturated components.

[13] = higher concentrations (>400 nM), microplate
[14] = microplate assay, multiple concentrations
[15] = 200 nM, initial microplate screen, relative to control
[16] = 20 μM, initial microplate screen, relative to control
[17] = 40 μM, 500 mL culture, day 6 in stationary phase
[18] = 500 mL culture, 4 μM in water, two replicates
[19] = microplate dose-response screening
[20] = 500 mL batch cultures, gravimetric (Table 30)
[21] = N. oculata, 4 nM, harvested day 6 of stationary phase, n=3

Structure (SMILES): O=C(O[C@@H]1Cc2c(O)cc(O)cc2O[C@@H]1c1cc(O)c(O)c(O)c1)c1cc(O)c(O)c(O)c1 [EGCG, [(2R,3R)-5,7-dihydroxy-2-(3,4,5-trihydroxy-phenyl)-3,4-dihydro-2H-chromen-3-yl] 3,4,5-trihydroxybenzoate]
- lipid increase [1, 13]: > 100%
- % Inc ([1]; increase of lipid production, P. tricornutum, best conc. 10 nM): 45.03%
- effect on lipid production / lipid levels [1, 14]: lipid production increased
- Nile Red percent increase (Nannochloris sp. [2]; 6 nM, dose-response microplate screen): 436%
- Nile Red percent increase (Nannochloris sp. [2]; 18.6 nM, dose-response microplate screen): 199%
- Nile Red percent increase (Nannochloris sp. [2]; 55 nM, dose-response microplate screen): 107%
- Absorbance (percent increase) (Nannochloris sp. [2]; [15]): −1.0%
- Nile Red percent increase (Nannochloris sp. [2]; [15]): 92.1%
- Absorbance (percent increase) (Nannochloris sp. [2]; [16]): +1.9%
- Nile Red percent increase (Nannochloris sp. [2]; [16]): 92.5%
- Nile Red Fluorescence % Increase (Nannochloris sp. [2]): 214.9%
- lipid increase (Nannochloris sp. [2]; [13]): > 100%
- effect on lipid production / lipid levels (Nannochloris sp. [2]; [14]): lipid production increased
- Lipid productivity [3]: 4.4 ± 2.4 mgL^−1day^−1
- Lipid content ([3]; dried lipid extract per dry biomass): 17.2 ± 1.3 % w/w
- Change in Lipids ([3]; gravimetric, relative to averaged control without DMSO): 6%
- Specific Growth Rate ([3]; mid-exponential growth phase): 0.19 ± 0.02 day⁻¹
- Absorbance at harvest (Nannochloropsis salina [4]; [17]): 1.41 ± 0.08
- Dry weight (Nannochloropsis salina [4]; [17]): 337.40 ± 62.55 mg
- Extract Weight (Nannochloropsis salina [4]; [17]): 94.77 ± 9.47 mg
- Number of Cells (Nannochloropsis salina [4]; [17]): 1.36E+09
- Recovered Weight (Nannochloropsis salina [4]; [17]): 330.03 ± 78.14 mg
- effect on growth and lipid levels (Nannochloropsis salina [4]): increased growth and lipid extract levels
- Lipid productivity (Nannochloropsis salina [4]; [18]): 7.1 ± 1.2 mgL^−1day^−1
- Lipid content (Nannochloropsis salina [4]; [18]): 32.4 ± 0.1 % w/w
- Change in Lipids (Nannochloropsis salina [4]; [18]): 46%
- Specific Growth Rate (Nannochloropsis salina [4]; [18]): 0.24 ± 0.01 day⁻¹
- Lipid productivity (Nannochloropsis salina [4]; 500 mL culture, 40 μM): 6.3 ± 2.2 mgL^−1day^−1
- Lipid content (Nannochloropsis salina [4]; 500 mL culture, 40 μM): 23.1 ± 10.6 % w/w
- Change in Lipids (Nannochloropsis salina [4]; 500 mL culture, 40 μM): 18%
- Specific Growth Rate (Nannochloropsis salina [4]; 500 mL culture, 40 μM): 0.22 ± 0.06 day⁻¹
- effect on growth and lipid levels (Nannochloropsis oculata [5]): increased growth and lipid extract levels
- Absorbance at harvest (Nannochloropsis oculata [5]; N. oculata, 400 nM EGCG, n=4): 1.855 ± 0.142
- Dry weight (Nannochloropsis oculata [5]; N. oculata, 400 nM EGCG, n=4): 290.7 ± 34.5
- Extract Weight (Nannochloropsis oculata [5]; N. oculata, 400 nM EGCG, n=4): 62.3 ± 21.6
- Lipid productivity (Nannochloropsis oculata [5]; N. oculata, 4 μM): 4.9 ± 1.7 mgL^−1day^−1
- Lipid content (Nannochloropsis oculata [5]; N. oculata, 4 μM): 20.6 ± 6.9 % w/w
- Change in Lipids (Nannochloropsis oculata [5]; N. oculata, 4 μM): 41%
- Specific Growth Rate (Nannochloropsis oculata [5]; N. oculata, 4 μM): 0.17 ± 0.03 day⁻¹
- effect on lipid levels (Nannochloropsis oculata [5]; batch culture, combined with sodium bicarbonate addition): increases lipid levels
- effect on growth and lipid levels (Nannochloris sp. [6]): increased growth and lipid extract levels
- Lipid productivity (Nannochloris sp. [6]; 40 nM): 4.3 ± 0.8 mgL^−1day^−1
- Change in Lipids (Nannochloris sp. [6]; 40 nM): 39%
- Specific Growth Rate (Nannochloris sp. [6]; 40 nM): 0.17 ± 0.03 day⁻¹
- SFAs (% of total lipids) (Nannochloropsis oculata [7]; 4 μM): 57 % of total lipids
- n3 PUFAs (% of UFAs) (Nannochloropsis oculata [7]; 4 μM): 65 % of UFAs
- All other PUFAs and MUFAs (% of UFAs) (Nannochloropsis oculata [7]; 4 μM): 35 % of UFAs
- UFAs (% of total lipids) (Nannochloropsis oculata [7]; 4 μM): 43 % of total lipids
- SFAs (%) (Nannochloropsis oculata [7]; N. oculata, 400 nM, n=1, Normal 0 ± 1): 10%
- MUFAs (%) (Nannochloropsis oculata [7]; N. oculata, 400 nM, n=1, Normal 4 ± 7): 5%
- n3 PUFAs (%) (Nannochloropsis oculata [7]; N. oculata, 400 nM, n=1, Normal 28 ± 4): 20%
- PUFAs (%) (Nannochloropsis oculata [7]; N. oculata, 400 nM, n=1, Normal 96 ± 7): 85%
- effect on growth and lipid levels (microalgae [8]): positive increases in growth and lipid levels
- increase of lipids by dry weight (microalgae [8]; 500 mL cultures (FIG. 19)): > 40%
- % Increase based on Nile Red Fluorescence Intensity (Nannochloropsis salina [9]; N. salina, 493 nM, DMSO delivery, added t=day 0): 87%
- lipid increase (Nannochloropsis salina [9]; [13]): > 100%
- effect on lipid production / lipid levels (Nannochloropsis salina [9]; [14]): lipid production increased
- Nile Red Fluorescence % Increase (Nannochloropsis oculata [10]; N. oculata, compounds tested at 200 nM, initial screening, p<0.05): 207.5%
- effect on lipid production / lipid levels (Nannochloropsis oculata [10]; [14]): lipid production increased
- IC50 (FABI): 0.2 µM
- increase in (intracellular) lipid levels, Nile Red (microalgae [11]): more than 100%

Structure (SMILES): C=C[C@@]1(C)CC(=O)[C@]2(O)[C@@]3(C)[C@@H](O)CCC(C)(C)[C@@H]3[C@H](O)[C@H](OC(C)=O)[C@@]2(C)O1 [Forskolin, (3R,4aR,5S,6S,6aS,10S,10aR,10bS)-6,10,10b-Trihydroxy-3,4a,7,7,10a-pentamethyl-1-oxo-3-vinyldodecahydro-1H-benzo[f]chromen-5-yl acetate]
- Absorbance (percent increase) [1, 15]: −1.2%
- Nile Red percent increase [1, 15]: 103.6%
- lipid increase relative to the control [1, 19]: ~40%
- Nile Red percent increase (Nannochloris sp. [2]; 13 nM, dose-response microplate screen): 121%
- Nile Red percent increase (Nannochloris sp. [2]; 41.2 nM, dose-response microplate screen): 118%
- Absorbance (percent increase) (Nannochloris sp. [2]; [15]): −5.5%
- Nile Red percent increase (Nannochloris sp. [2]; [15]): 60.6%
- Nile Red Fluorescence % Increase (Nannochloris sp. [2]): 45.3%
- lipid increase relative to the control (Nannochloris sp. [2]; [19]): ≥ 100%
- effect on growth and lipid levels (Nannochloropsis salina [4]): increases in lipid production
- effect on growth and lipid levels (Nannochloropsis oculata [5]): increases in lipid production
- increase in lipid levels (Nannochloropsis oculata [5]; [20]): 84%
- Absorbance at harvest (Nannochloropsis oculata [5]; [21]): 2.10
- Dry weight (Nannochloropsis oculata [5]; [21]): 353.57 mg
- Extract Weight (Nannochloropsis oculata [5]; [21]): 88.67 mg
- Number of Cells (Nannochloropsis oculata [5]; [21]): 2.46E+09
- Recovered Weight (Nannochloropsis oculata [5]; [21]): 344.90 mg
- Lipid productivity (Nannochloropsis oculata [5]; N. oculata, 4 nM): 6.4 ± 1.2 mgL^−1day^−1
- Lipid content (Nannochloropsis oculata [5]; N. oculata, 4 nM): 25.6 ± 1.8 % w/w
- Change in Lipids (Nannochloropsis oculata [5]; N. oculata, 4 nM): 84%
- Specific Growth Rate (Nannochloropsis oculata [5]; N. oculata, 4 nM): 0.17 ± 0.02 day⁻¹
- effect on growth and lipid levels (Nannochloris sp. [6]): increases in lipid production
- increase in lipid levels (Nannochloris sp. [6]; [20]): 51%
- Lipid productivity (Nannochloris sp. [6]; 10 μM): 4.5 ± 1.7 mgL^−1day^−1
- Change in Lipids (Nannochloris sp. [6]; 10 μM): 51%
- Specific Growth Rate (Nannochloris sp. [6]; 10 μM): 0.15 ± 0.05 day⁻¹
- SFAs (% of total lipids) (Nannochloropsis oculata [7]; 40 nM): 59 % of total lipids
- n3 PUFAs (% of UFAs) (Nannochloropsis oculata [7]; 40 nM): 61 % of UFAs
- All other PUFAs and MUFAs (% of UFAs) (Nannochloropsis oculata [7]; 40 nM): 39 % of UFAs
- UFAs (% of total lipids) (Nannochloropsis oculata [7]; 40 nM): 41 % of total lipids
- effect on growth and lipid levels (microalgae [8]): positive increases in growth and lipid levels
- lipid increase relative to the control (Nannochloropsis salina [9]; [19]): ~40%
- Absorbance (percent increase) (Nannochloropsis oculata [10]; [16]): −17.3%
- Nile Red percent increase (Nannochloropsis oculata [10]; [16]): 50.4%
- lipid increase relative to the control (Nannochloropsis oculata [10]; [19]): ≥ 100%

Structure (SMILES): COC(=O)[C@@]1(O)C[C@H]2O[C@]1(C)n1c3ccccc3c3c4c(c5c6ccccc6n2c5c31)C(=O)NC4 [K-252a]
- Ki (PKC): 0.025 µM

Structure (SMILES): O=C([O-])O.[Na+] [sodium bicarbonate]
- effect on PUFA levels [12]: increases PUFA levels
